Legend:
Format in all cases: functional, cell-based
HepG2 = assay: Cytotoxicity against human HepG2 cells assessed as inhibition of cell growth after 3 days by MTT assay; details: HepG2, 72 h
[1] = Cytotoxicity against human Lu cells assessed as inhibition of cell growth after 3 days by MTT assay; details: 72 h
MCF7 = assay: Cytotoxicity against human MCF7 cells assessed as inhibition of cell growth after 3 days by MTT assay; details: MCF7, 72 h
KB = assay: Cytotoxicity against human KB cells assessed as inhibition of cell growth after 3 days by MTT assay; details: 72 h

| Compound | IC50 (HepG2) [nM] | IC50 [1] [nM] | IC50 (MCF7) [nM] | IC50 (KB) [nM] |
| --- | --- | --- | --- | --- |
| CCOC(=O)/C(C)=C/[C@@H](NC(=O)[C@@H](NC(=O)/C(=C/c1ccc2ccccc2c1)NC(C)=O)C(C)(C)C)C(C)C | 39.7 | > 269 | 42.3 | 30.8 |
| CCOC(=O)/C(C)=C/[C@@H](NC(=O)[C@@H](NC(=O)/C(=C/c1ccco1)NC(C)=O)C(C)(C)C)C(C)C | 214 | > 269 | > 269 | 160 |
| CCOC(=O)/C(C)=C/[C@@H](NC(=O)[C@@H](NC(=O)/C(=C/c1ccoc1)NC(C)=O)C(C)(C)C)C(C)C | 67.3 | > 269 | > 269 | 86.2 |
| CCOC(=O)/C(C)=C/[C@@H](NC(=O)[C@@H](NC(=O)/C(=C/c1ccsc1)NC(C)=O)C(C)(C)C)C(C)C | 57.6 | > 269 | 203 | 107 |
| CCOC(=O)/C(C)=C/[C@@H](NC(=O)[C@@H](NC(=O)/C(=C/c1cccc(OC)c1)NC(C)=O)C(C)(C)C)C(C)C | 47.7 | 228 | 62 | 77.4 |
| CCOC(=O)/C(C)=C/[C@@H](NC(=O)[C@@H](NC(=O)/C(=C/c1ccc(OC)cc1)NC(C)=O)C(C)(C)C)C(C)C | > 269 | > 269 | > 269 | > 269 |
| CCOC(=O)/C(C)=C/[C@@H](NC(=O)[C@@H](NC(=O)/C(=C/c1ccc(Br)cc1)NC(C)=O)C(C)(C)C)C(C)C | > 269 | > 269 | > 269 | > 269 |
| CCOC(=O)/C(C)=C/[C@@H](NC(=O)[C@@H](NC(=O)/C(=C/c1cccc(Br)c1)NC(C)=O)C(C)(C)C)C(C)C | > 269 | > 269 | > 269 | > 269 |
| CC(=O)N/C(=C\c1ccc2ccccc2c1)C(=O)N[C@H](C(=O)N[C@H](/C=C(\C)C(=O)O)C(C)C)C(C)(C)C | 33.4 | > 269 | > 269 | 63 |
| CC(=O)N/C(=C\c1ccco1)C(=O)N[C@H](C(=O)N[C@H](/C=C(\C)C(=O)O)C(C)C)C(C)(C)C | 17.8 | > 269 | > 269 | 8.2 |
| CC(=O)N/C(=C\c1ccoc1)C(=O)N[C@H](C(=O)N[C@H](/C=C(\C)C(=O)O)C(C)C)C(C)(C)C | > 269 | > 269 | > 269 | 155 |
| CC(=O)N/C(=C\c1ccsc1)C(=O)N[C@H](C(=O)N[C@H](/C=C(\C)C(=O)O)C(C)C)C(C)(C)C | > 269 | > 269 | > 269 | > 269 |
| COc1cccc(/C=C(\NC(C)=O)C(=O)N[C@H](C(=O)N[C@H](/C=C(\C)C(=O)O)C(C)C)C(C)(C)C)c1 | > 269 | > 269 | > 269 | > 269 |
| COc1ccc(/C=C(\NC(C)=O)C(=O)N[C@H](C(=O)N[C@H](/C=C(\C)C(=O)O)C(C)C)C(C)(C)C)cc1 | > 269 | > 269 | > 269 | > 269 |
| CC(=O)N/C(=C\c1ccc(Br)cc1)C(=O)N[C@H](C(=O)N[C@H](/C=C(\C)C(=O)O)C(C)C)C(C)(C)C | > 269 | > 269 | > 269 | > 269 |
| CC(=O)N/C(=C\c1cccc(Br)c1)C(=O)N[C@H](C(=O)N[C@H](/C=C(\C)C(=O)O)C(C)C)C(C)(C)C | > 269 | > 269 | > 269 | > 269 |

| Compound | IC50 (HepG2) [nM] | IC50 [1] [nM] | IC50 (MCF7) [nM] | IC50 (KB) [nM] |
| --- | --- | --- | --- | --- |
| CCOC(=O)/C(C)=C/[C@H](C(C)C)N(C)C(=O)[C@@H](NC(=O)/C(=C/c1ccc2ccccc2c1)NC(C)=O)C(C)(C)C | 23.1 | > 269 | 67.9 | 23 |
| CCOC(=O)/C(C)=C/[C@H](C(C)C)N(C)C(=O)[C@@H](NC(=O)/C(=C/c1ccco1)NC(C)=O)C(C)(C)C | 31.4 | 231 | 178 | 3.5 |
| CCOC(=O)/C(C)=C/[C@H](C(C)C)N(C)C(=O)[C@@H](NC(=O)/C(=C/c1ccoc1)NC(C)=O)C(C)(C)C | 16.3 | 158 | 113 | 24.1 |
| CCOC(=O)/C(C)=C/[C@H](C(C)C)N(C)C(=O)[C@@H](NC(=O)/C(=C/c1ccsc1)NC(C)=O)C(C)(C)C | 15 | > 269 | > 269 | 202 |
| CCOC(=O)/C(C)=C/[C@H](C(C)C)N(C)C(=O)[C@@H](NC(=O)/C(=C/c1cccc(OC)c1)NC(C)=O)C(C)(C)C | > 269 | > 269 | > 269 | > 269 |
| CCOC(=O)/C(C)=C/[C@H](C(C)C)N(C)C(=O)[C@@H](NC(=O)/C(=C/c1ccc(OC)cc1)NC(C)=O)C(C)(C)C | 3.7 | > 269 | 215 | 3.7 |
| CCOC(=O)/C(C)=C/[C@H](C(C)C)N(C)C(=O)[C@@H](NC(=O)/C(=C/c1ccc(Br)cc1)NC(C)=O)C(C)(C)C | > 269 | > 269 | > 269 | 49 |
| CC(=O)N/C(=C\c1ccc2ccccc2c1)C(=O)N[C@H](C(=O)N(C)[C@H](/C=C(\C)C(=O)O)C(C)C)C(C)(C)C | 13 | > 269 | > 269 | 69.7 |
| CC(=O)N/C(=C\c1ccco1)C(=O)N[C@H](C(=O)N(C)[C@H](/C=C(\C)C(=O)O)C(C)C)C(C)(C)C | > 269 | > 269 | > 269 | 188 |
| CC(=O)N/C(=C\c1ccoc1)C(=O)N[C@H](C(=O)N(C)[C@H](/C=C(\C)C(=O)O)C(C)C)C(C)(C)C | 149 | > 269 | > 269 | > 269 |
| CC(=O)N/C(=C\c1ccsc1)C(=O)N[C@H](C(=O)N(C)[C@H](/C=C(\C)C(=O)O)C(C)C)C(C)(C)C | 63.2 | > 269 | > 269 | 234 |
| COc1cccc(/C=C(\NC(C)=O)C(=O)N[C@H](C(=O)N(C)[C@H](/C=C(\C)C(=O)O)C(C)C)C(C)(C)C)c1 | > 269 | > 269 | > 269 | > 269 |
| COc1ccc(/C=C(\NC(C)=O)C(=O)N[C@H](C(=O)N(C)[C@H](/C=C(\C)C(=O)O)C(C)C)C(C)(C)C)cc1 | 63.8 | > 269 | > 269 | 15.8 |
| CC(=O)N/C(=C\c1ccc(Br)cc1)C(=O)N[C@H](C(=O)N(C)[C@H](/C=C(\C)C(=O)O)C(C)C)C(C)(C)C | > 269 | > 269 | > 269 | > 269 |
| Cc1c2ccncc2c(C)c2c1[nH]c1ccccc12 [ELLIPTECINE] | 1.26 | 1.82 | 2.15 | 1.26 |
| CC(=O)O[C@H]1C(=O)[C@@]2(C)[C@H]([C@H](OC(=O)c3ccccc3)[C@]3(O)C[C@H](OC(=O)[C@H](O)[C@@H](NC(=O)c4ccccc4)c4ccccc4)C(C)=C1C3(C)C)[C@]1(OC(C)=O)CO[C@@H]1C[C@@H]2O [PACLITAXEL] | 0.19 | – | – | 3.9 |
